Drawing on US20250084067A1, “PYRAZOLE-SUBSTITUTED CYCLOPENTANOL ESTER DERIVATIVE AND USE THEREOF” (CHIA TAI TIANQING PHARMACEUTICAL GROUP CO., LTD., priority 2022, published 2025), this text covers IC50 for 32 molecules.

Structures are written as SMILES. Where two headings read alike, the source gives them in different places.

One assay has as its target CDK2/CycA2 kinase (Homo sapiens (Human), UniProt P24941). The assay is described as follows: Determination of inhibitory activity against CDK2/CycA2 kinase. It is filed as biochemical. On the procedure:
The wells were set in duplicate, and a control well was set. […] The resulting mixture was left to react at room temperature for 2 h, and then 5 µL of EDTA was added to terminate the reaction, followed by addition of 5 μL of a detection antibody (manufacturer: PerkinElmer, concentration: 8 nM). The mixture was incubated at room temperature for 1 h.

For the next assay, the target named is CDK2 CycE1 kinase (Homo sapiens (Human), UniProt P24941). Put plainly: Determination of inhibitory activity against CDK2 CycE1 kinase. It is filed as biochemical. On the procedure: CDK2 CycE1 kinase solution (concentration: 0.015 ng/μL) was added to assay wells at 6 μL/well, and different compounds dissolved in DMSO were added to the assay wells separately using a nanoliter pipettor, such that the final concentrations of the compounds were 300 nM to 0.07 nM. The wells were set in duplicate, and a control well was set. After incubation of the above system for 30 min, ATP (concentration: 50 μM or 5000 μM) was mixed with ULight-Myelin Basic Protein Peptide substrate (manufacturer: PerkinElmer, concentration: […]) at a ratio of 1:1, and the mixture was added to the assay wells at 4 μL/well. The resulting mixture was left to react at room temperature for 2 h, and then 5 μL of EDTA was added to terminate the reaction, followed by addition of 5 μL of a detection antibody (manufacturer: PerkinElmer, concentration: 8 nM). The mixture was incubated at room temperature for 1 h.

On to `O=C(NC1CC1)O[C@@H]1CC[C@H](c2cc(Nc3ccc4c(c3)CS(=O)(=O)C4)n[nH]2)C1` [Example 67], for which the IC50 against CDK2/CycA2 kinase (10 μM ATP) and on CDK2 CycE1 kinase (10 μM ATP) was under 10 nM each time.

`CC(C)NC(=O)O[C@@H]1CC[C@H](c2cc(Nc3ccc(S(N)(=O)=O)c(F)c3)n[nH]2)C1` [Example 33]: the IC50 against CDK2/CycA2 kinase (10 μM ATP) and on CDK2 CycE1 kinase (10 μM ATP) was under 10 nM in each case.

As to `CNC(=O)O[C@@H]1CC[C@H](c2cc(Nc3ccc4c(c3)CS(=O)(=O)C4)n[nH]2)C1` [Example 53], the IC50 against CDK2/CycA2 kinase (10 μM ATP) and on CDK2 CycE1 kinase (10 μM ATP) was under 10 nM each time.

As to `CC(C)NC(=O)O[C@@H]1CC[C@H](c2cc(Nc3ccc(S(C)(=O)=O)cc3)n[nH]2)C1` [Example 54], the IC50 against CDK2/CycA2 kinase (10 μM ATP) and against CDK2 CycE1 kinase (10 μM ATP) was under 10 nM each time.

As for `CC(C)NC(=O)O[C@@H]1CC[C@H](c2cc(Nc3ccc(NS(C)(=O)=O)c(F)c3F)n[nH]2)C1` [Example 37], the IC50 against CDK2/CycA2 kinase (10 μM ATP) and on CDK2 CycE1 kinase (10 μM ATP) was under 10 nM each time.

Regarding `COc1ccc(Nc2cc([C@H]3CC[C@@H](OC(=O)NC(C)C)C3)[nH]n2)nc1` [Example 9], the IC50 on CDK2/CycA2 kinase (10 μM ATP) is 10 to 50 nM; against CDK2 CycE1 kinase (10 μM ATP), under 10 nM.

With `CC(C)NC(=O)O[C@@H]1CC[C@H](c2cc(Nc3ccc(N4CCCC4=O)cn3)n[nH]2)C1` [Example 14], the IC50 on CDK2/CycA2 kinase (10 μM ATP) and on CDK2 CycE1 kinase (10 μM ATP) was under 10 nM in each case.

On to `CC(C)NC(=O)O[C@H]1CC[C@@H](c2cc(Nc3ccc(S(N)(=O)=O)cc3F)n[nH]2)C1` [Example 34], for which the IC50 against CDK2/CycA2 kinase (10 μM ATP) and against CDK2 CycE1 kinase (10 μM ATP) was under 10 nM in each case.

Turning to `CC1(NC(=O)O[C@@H]2CC[C@H](c3cc(Nc4ccc5c(c4)CS(=O)(=O)C5)n[nH]3)C2)CC1` [Example 48], the IC50 against CDK2/CycA2 kinase (10 μM ATP) and at CDK2 CycE1 kinase (10 μM ATP) was under 10 nM in each case.

As to `CC(C)NC(=O)O[C@@H]1CC[C@H](c2cc(Nc3ccc4c(c3)CCN4S(C)(=O)=O)n[nH]2)C1` [Example 51], the IC50 was 10 to 50 nM against CDK2/CycA2 kinase (10 μM ATP) and under 10 nM against CDK2 CycE1 kinase (10 μM ATP).

`COCc1ccc(Nc2cc(C3CCC(OC(=O)NC(C)C)C3)[nH]n2)nc1` (stereo not shown) [Example 18]: the IC50 at CDK2/CycA2 kinase (10 μM ATP) and against CDK2 CycE1 kinase (10 μM ATP) was 10 to 50 nM in each case.

Regarding `CC(C)NC(=O)O[C@@H]1CC[C@H](c2cc(Nc3ccc4c(c3)CC(=O)N4)n[nH]2)C1` [Example 42], the IC50 against CDK2/CycA2 kinase (10 μM ATP) and at CDK2 CycE1 kinase (10 μM ATP) was under 10 nM in each case.

As for `COc1nc(Nc2cc([C@H]3CC[C@@H](OC(=O)NC(C)C)C3)[nH]n2)ccc1NS(C)(=O)=O` [Example 45], the IC50 against CDK2/CycA2 kinase (10 μM ATP) and against CDK2 CycE1 kinase (10 μM ATP) was under 10 nM in each case.

Turning to `CC(C)NC(=O)O[C@@H]1CC[C@H](c2cc(Nc3ccc(N4CCCC4=O)c(F)c3)n[nH]2)C1` [Example 35], the IC50 against CDK2/CycA2 kinase (10 μM ATP) and on CDK2 CycE1 kinase (10 μM ATP) was under 10 nM in each case.

In the case of `CC(C)NC(=O)O[C@@H]1CC[C@H](c2cc(Nc3ccc(NS(C)(=O)=O)cn3)n[nH]2)C1` [Example 1], the IC50 against CDK2/CycA2 kinase (10 μM ATP) and on CDK2 CycE1 kinase (10 μM ATP) was under 10 nM in each case.

Consider `CC(C)NC(=O)O[C@@H]1CC[C@H](c2cc(Nc3ccc(NS(C)(=O)=O)cc3)n[nH]2)C1` [Example 7], for which the IC50 on CDK2/CycA2 kinase (10 μM ATP) and on CDK2 CycE1 kinase (10 μM ATP) was under 10 nM in each case.

Turning to `C[C@@H](NC(=O)O[C@@H]1CC[C@H](c2cc(Nc3ccc4c(c3)CS(=O)(=O)C4)n[nH]2)C1)C(F)(F)F` [Example 64], the IC50 at CDK2/CycA2 kinase (read-out: CDK2/CycA2 10 μM ATP (kinase) IC50) and on CDK2 CycE1 kinase (read-out: CDK2/CycE1 10 μM ATP (kinase) IC50) was under 10 nM throughout.

Take `CC(C)NC(=O)O[C@@H]1CC[C@H](c2cc(Nc3ccc(NS(C)(=O)=O)cc3F)n[nH]2)C1` [Example 3]: the IC50 against CDK2/CycA2 kinase (10 μM ATP) and at CDK2 CycE1 kinase (10 μM ATP) was under 10 nM each time.

As for `CC(C)NC(=O)O[C@@H]1CC[C@H](c2cc(Nc3ccc4c(c3)OCO4)n[nH]2)C1` [Example 39], the IC50 on CDK2/CycA2 kinase (10 μM ATP) and against CDK2 CycE1 kinase (10 μM ATP) was under 10 nM each time.

For `CC(C)NC(=O)O[C@@H]1CC[C@H](c2cc(Nc3ccc4c(c3)CNS4(=O)=O)n[nH]2)C1` [Example 56], the IC50 against CDK2/CycA2 kinase (10 μM ATP) and on CDK2 CycE1 kinase (10 μM ATP) was under 10 nM throughout.

Regarding `CC(C)NC(=O)O[C@@H]1CC[C@H](c2cc(Nc3ccc(NC=O)cn3)n[nH]2)C1` [Example 5], the IC50 against CDK2/CycA2 kinase (10 μM ATP) and on CDK2 CycE1 kinase (10 μM ATP) was under 10 nM each time.

On to `[2H]C([2H])([2H])C([2H])(NC(=O)O[C@@H]1CC[C@H](c2cc(Nc3ccc4c(c3)CS(=O)(=O)C4)n[nH]2)C1)C([2H])([2H])[2H]` [Example 78], for which the IC50 against CDK2/CycA2 kinase (10 μM ATP) and on CDK2 CycE1 kinase (10 μM ATP) was under 10 nM in each case.

`CC(C)NC(=O)O[C@@H]1CC[C@H](c2cc(Nc3ccc(C(N)=O)cc3)n[nH]2)C1` [Example 46]: the IC50 against CDK2/CycA2 kinase (10 μM ATP) and against CDK2 CycE1 kinase (10 μM ATP) was under 10 nM in each case.

Consider `COc1cc(Nc2cc([C@H]3CC[C@@H](OC(=O)NC(C)C)C3)[nH]n2)ccc1NS(C)(=O)=O` [Example 55], for which the IC50 against CDK2/CycA2 kinase (10 μM ATP) and against CDK2 CycE1 kinase (10 μM ATP) was under 10 nM throughout.

In the case of `COCCNc1ccc(Nc2cc(C3CCC(OC(=O)NC(C)C)C3)[nH]n2)nc1` (stereo not shown) [Example 20], the IC50 at CDK2/CycA2 kinase (10 μM ATP) and against CDK2 CycE1 kinase (10 μM ATP) was 10 to 50 nM in each case.

Turning to `CC(C)NC(=O)O[C@@H]1CC[C@H](c2cc(Nc3ccc(NS(C)(=O)=O)c(Cl)c3)n[nH]2)C1` [Example 40], the IC50 at CDK2/CycA2 kinase (10 μM ATP) and against CDK2 CycE1 kinase (10 μM ATP) was under 10 nM throughout.

Take `CC(C)NC(=O)O[C@@H]1CC[C@H](c2cc(Nc3ccc(NS(C)(=O)=O)c(OC(F)(F)F)n3)n[nH]2)C1` [Example 29]: the IC50 against CDK2/CycA2 kinase (10 μM ATP) and against CDK2 CycE1 kinase (10 μM ATP) was under 10 nM throughout.

As for `CC(C)NC(=O)O[C@@H]1CC[C@H](c2cc(Nc3ccc(S(=O)(=O)NC4CC4)cn3)n[nH]2)C1` [Example 68], the IC50 at CDK2/CycA2 kinase (10 μM ATP) and against CDK2 CycE1 kinase (10 μM ATP) was under 10 nM throughout.

Consider `CC(C)NC(=O)O[C@@H]1CC[C@H](c2cc(Nc3ccc(S(=N)(=O)C4CC4)cc3)n[nH]2)C1` (stereo partly shown) [Example 62], for which the IC50 against CDK2/CycA2 kinase (10 μM ATP) and against CDK2 CycE1 kinase (10 μM ATP) was under 10 nM each time.

For the molecule `CC(=O)N(C)c1ccc(Nc2cc([C@H]3CC[C@@H](OC(=O)NC(C)C)C3)[nH]n2)nc1` [Example 4], the IC50 against CDK2/CycA2 kinase (10 μM ATP) and on CDK2 CycE1 kinase (10 μM ATP) was 10 to 50 nM in each case.

Take `CC(C)NC(=O)O[C@@H]1CC[C@H](c2cc(Nc3ccc(NS(C)(=O)=O)c(F)c3)n[nH]2)C1` [Example 23]: the IC50 at CDK2/CycA2 kinase (10 μM ATP) and against CDK2 CycE1 kinase (10 μM ATP) was under 10 nM throughout.

`CC(C)NC(=O)O[C@H]1CC[C@@H](c2cc(Nc3ccc(NS(C)(=O)=O)c(C(F)(F)F)c3)n[nH]2)C1` [Example 50]: the IC50 on CDK2/CycA2 kinase (10 μM ATP) and at CDK2 CycE1 kinase (10 μM ATP) was under 10 nM in each case.
